{"source": "patent US20240158639A1", "about": "“PROCESS FOR PREPARING INDOCYANINE GREEN” (ICROM Srl, priority 2021, published 2024)", "key": {"[1]": {"test": "Stability of the HPLC sample solution", "assay_type": "physicochemical", "experimental": "Sonicate for 5 minutes verifying complete solubilization."}, "[2]": {"settings": "in vivo, iv; cited from earlier work"}, "[3]": {"settings": "10° C., 30 days, in nitrogen, aluminium + polythene, MeOH"}, "[4]": {"settings": "10° C., 30 days, no nitrogen, polythene, MeOH"}, "[5]": {"settings": "20-25° C., 30 days, in nitrogen, aluminium + polythene, MeOH"}, "[6]": {"settings": "20-25° C., 30 days, no nitrogen, polythene, MeOH"}, "[7]": {"settings": "t0, no nitrogen, polythene, diluent MeOH, % area 254 nm"}}, "note": "Like-named read-outs stand apart in the source and are kept apart here.", "data": [{"compound": "CC1(C)C(/C=C/C=C/C=C/C=C2\\N(CCCCS(=O)(=O)[O-])c3ccc4ccccc4c3C2(C)C)=[N+](CCCCS(=O)(=O)[O-])c2ccc3ccccc3c21.[Na+]", "note": "[067/046]", "values": [{"measurement": "% rt 3.5 (A)", "setting": "[3]", "value": "nq"}, {"measurement": "% rt 4.0", "setting": "[3]", "value": 0.02, "unit": "%"}, {"measurement": "% rt 8.9", "setting": "[3]", "value": 0.04, "unit": "%"}, {"measurement": "INNmax (unknown maximum impurity) %", "setting": "[3]", "value": 0.07, "unit": "%"}, {"measurement": "Purity", "setting": "[3]", "value": 99.77, "unit": "%"}, {"measurement": "% rt 3.5 (A)", "setting": "[4]", "value": "nq"}, {"measurement": "% rt 4.0", "setting": "[4]", "value": 0.04, "unit": "%"}, {"measurement": "% rt 8.9", "setting": "[4]", "value": 0.04, "unit": "%"}, {"measurement": "INNmax (unknown maximum impurity) %", "setting": "[4]", "value": 0.06, "unit": "%"}, {"measurement": "Purity", "setting": "[4]", "value": 99.84, "unit": "%"}, {"measurement": "% rt 3.5 (A)", "setting": "[5]", "value": "nq"}, {"measurement": "% rt 4.0", "setting": "[5]", "value": 0.03, "unit": "%"}, {"measurement": "% rt 8.9", "setting": "[5]", "value": 0.05, "unit": "%"}, {"measurement": "INNmax (unknown maximum impurity) %", "setting": "[5]", "value": 0.08, "unit": "%"}, {"measurement": "Purity", "setting": "[5]", "value": 99.71, "unit": "%"}, {"measurement": "% rt 3.5 (A)", "setting": "[6]", "value": "nq"}, {"measurement": "% rt 4.0", "setting": "[6]", "value": 0.076, "unit": "%"}, {"measurement": "% rt 8.9", "setting": "[6]", "value": 0.05, "unit": "%"}, {"measurement": "INNmax (unknown maximum impurity) %", "setting": "[6]", "value": 0.076, "unit": "%"}, {"measurement": "Purity", "setting": "[6]", "value": 99.78, "unit": "%"}, {"measurement": "% rt 3.5 (A)", "setting": "[7]", "value": "nq"}, {"measurement": "% rt 4.0", "setting": "[7]", "value": 0.02, "unit": "%"}, {"measurement": "% rt 8.9", "setting": "[7]", "value": 0.03, "unit": "%"}, {"measurement": "INNmax (unknown maximum impurity) %", "setting": "[7]", "value": 0.07, "unit": "%"}, {"measurement": "Purity", "setting": "[7]", "value": 99.73, "unit": "%"}]}, {"compound": "1H-benz[e]indole, 2-[7-[1,3-dihydro-1,1-dimethyl-3-(4-sulfobutyl)-2H-benz[e]indol-2-ylidene]-1,3,5-heptatrienyl]-1,1-dimethyl-3-(4-sulfobutyl) hydroxide, inner salt, sodium salt [compound of formula (I)]", "values": [{"measurement": "time for which the sample solution is stable", "setting": "[1]; sample preparation method 1: 40 mg in 50 ml mixture phase 70:30 A:B", "value": "≤ 30", "unit": "min"}, {"measurement": "time for which the sample solution is stable", "setting": "[1]; sample preparation method 2: 40 mg in 50 ml methanol", "value": "≤ 30", "unit": "min"}, {"measurement": "half-life of elimination by the body", "setting": "[2]", "value": "3 to 4", "unit": "min"}]}]}
